Reference: patent EP0555351B1, “OXYSULFONYL CARBAMATES” (WARNER-LAMBERT COMPANY, priority 1990, dated 1992)
Where a name gives a salt, the structure may show the parent alone. Read-outs that look alike come from different tables or passages of the source.

Legend:
male Sprague-Dawley rats = experiment: in vivo screen APCC: blood cholesterol in rats after one night on a high fat, high cholesterol diet (PCC); settings: blood cholesterol vs vehicle (CMC/Tween), dosed at 4 PM, PCC diet containing 0.5% cholic acid overnight, sacrificed at 8 AM, dose not given
Text: In one in vivo screen designated APCC, male Sprague-Dawley rats (200 to 225 g) were randomly divided into treatment groups and dosed at 4 PM with either vehicle (CMC/Tween) or suspensions of compounds in vehicle. The normal chow diet was then replaced with a high fat, high cholesterol diet (designated PCC) containing 0.5% cholic acid. The rats consumed this diet ad libitum during the night and were sacrificed at 8 AM to obtain blood samples for cholesterol analysis using standard procedures. Statistical differences between mean cholesterol values for the same vehicle were determined using analysis of variance followed by Fisher's least significant test.

[1] = biological target: acyl-CoA: cholesterol acyltransferase (ACAT); experiment: in vitro ACAT inhibition test (IAI): formation of radiolabeled cholesterol oleate from radiolabeled oleic acid in intestinal microsomes; type: biochemical; settings: tissue preparation containing rabbit intestinal microsomes, concentration required to inhibit the activity of the enzyme by 50%, read-out: IAI IC₅₀
Description: The ability of representative compounds of the present invention to inhibit ACAT was measured using an in vitro test more fully described in F. J. Field and R. G. Salone, Biochemica et Biophysica 712:557-570 (1982). The test assesses the ability of a test compound to inhibit the acylation of cholesterol by oleic acid by measuring the amount of radiolabeled cholesterol oleate formed from radiolabeled oleic acid in a tissue preparation containing rabbit intestinal microsomes.
The data appear in Table 1 where they are expressed in IC₅₀ values; i.e., the concentration of test compound required to inhibit the activity of the enzyme by 50%.

Structure (SMILES)	% Change (mg/dl) (male Sprague-Dawley rats)	IC50 [1] [µM]	further results
CCCCCCOS(=O)(=O)NC(=O)Oc1c(C(C)C)cccc1C(C)C [Example 7, 2,6-Bis(1-methylethyl)phenyl[(hexyloxy)sulfonyl]carbamate]	-52%	–	–
CC(C)c1cccc(C(C)C)c1OC(=O)NS(=O)(=O)Oc1c(C(C)C)cccc1C(C)C [Example 27, 2,6-bis(1-methylethyl)phenyl[[2,6-bis(1-methylethyl)phenoxylsulfonyl]carbamate, 2-hydroxy-N,N,N-trimethylethanaminium salt]	-72%	3.3	–
CCCCCCOS(=O)(=O)NC(=O)Oc1c(C(C)(C)C)cc(C)cc1C(C)(C)C [Example 3, 2,6-Bis(1,1-dimethylethyl)-4-methylphenyl[(hexyloxy)sulfonyl]carbamate]	-56%	–	–
Cc1cc(C(C)(C)C)c(OC(=O)NS(=O)(=O)Oc2ccccc2)c(C(C)(C)C)c1 [Example 2, 2,6-Bis(1,1-dimethylethyl)-4-methylphenyl(phenoxysulfonyl)carbamate]	-65%	–	–
CC(C)c1cccc(C(C)C)c1OC(=O)NS(=O)(=O)Oc1c(C(C)(C)C)cccc1C(C)(C)C [Example 24, 2,6-Bis(1-methylethyl)phenyl[[2,6-bis(1,1-dimethylethyl)phenoxy]sulfonyl]carbamate]	-55%	–	–
CC(C)c1cccc(C(C)C)c1OC(=O)NS(=O)(=O)Oc1c(C(C)C)cccc1C(C)C [Example 1, 2,6-Bis(1-methylethyl)phenyl[[2,6-bis(1-methylethyl)phenoxy]sulfonyl]carbamate]	-70%	–	–
COc1cc(OC)c(OS(=O)(=O)NC(=O)Oc2c(C(C)C)cccc2C(C)C)c(OC)c1 [Example 21, 2,6-Bis(1-methylethyl)phenyl[(2,4,6-trimethoxyphenoxy)sulfonyl]carbamate]	-61%	–	–
CC(C)c1cccc(C(C)C)c1OC(=O)NS(=O)(=O)Oc1c(C(C)C)cccc1C(C)C [Example 28, 2,6-bis(1-methylethyl)phenyl[[2,6-bis(1-methylethyl)phenoxy]sulfonyl]carbamate, monosodium salt]	–	–	IC50 ([1]; monosodium salt): 5.2 µM; % Change (mg/dl) (male Sprague-Dawley rats; monosodium salt): -65%
CCCCCCCCCCCCCCCCOS(=O)(=O)NC(=O)Oc1c(C(C)C)cccc1C(C)C [Example 23, 2,6-Bis(1-methylethyl)phenyl[(hexadecyloxy)sulfonyl]carbamate]	-59%	–	–
CC(C)c1cccc(C(C)C)c1OC(=O)NS(=O)(=O)Oc1c(F)cccc1F [Example 22]	+9%	38	–
CCCCCCCCCCCCOS(=O)(=O)NC(=O)Oc1c(C(C)(C)C)cc(C)cc1C(C)(C)C [Example 4]	-65%	52	–
CC(C)c1cccc(C(C)C)c1OC(=O)N(C)S(=O)(=O)Oc1c(C(C)C)cccc1C(C)C [Example 31, 2,6-bis(1-methylethyl)phenyl[[2,6-bis(1-methylethyl)phenoxylsulfonyl]methyl carbamate]	-64%	63	–
COc1cccc(OC)c1OC(=O)NS(=O)(=O)Oc1c(OC)cccc1OC [Example 25, 2,6-dimethoxyphenyl[(2,6-dimethoxyphenoxy)sulfonyl]carbamate]	-10%	–	–
COc1cccc(OC)c1OS(=O)(=O)NC(=O)Oc1c(C(C)C)cccc1C(C)C [Example 19, 2,6-Bis(1-methylethyl)phenyl[(2,6-dimethoxyphenoxy)sulfonyl]carbamate]	-70%	–	–
CC(C)c1cccc(C(C)C)c1OC(=O)NS(=O)(=O)Oc1ccccc1 [Example 17, 2,6-Bis(1-methylethyl)phenyl(phenoxysulfonyl)carbamate]	-26%	–	–
COC(=O)NS(=O)(=O)Oc1c(C(C)C)cccc1C(C)C [Example 6, Methyl[[2,6-bis(1-methylethyl)phenoxy]sulfonyl]carbamate]	–	> 100	–
CCCCCCCCCCCCOC(=O)NS(=O)(=O)Oc1c(C(C)C)cccc1C(C)C [Example 5, Dodecyl [[2,6-bis(1-methylethyl)phenoxy]sulfonyl]carbamate]	-62%	13	–
CC(C)c1cccc(C(C)C)c1OC(=O)NS(=O)(=O)Oc1ccc(F)cc1F [Example 20]	-11%	50	–
CCCCCCCCCCCCOS(=O)(=O)NC(=O)Oc1c(-c2ccccc2)cccc1-c1ccccc1 [Example 10, [1,1':3',1''-Terphenyl]-2'-yl[(dodecyloxy)sulfonyl]carbamate]	-69%	> 10	–
CC(C)c1cccc(C(C)C)c1OS(=O)(=O)NC(=O)Oc1c(C(C)(C)C)cccc1C(C)(C)C [Example 9, 2,6-Bis(1,1-dimethylethyl)phenyl[[2,6-bis(1-methylethyl)phenoxy]sulfonyl]carbamate]	-70%	–	–
CCCCCCCCCCCCOS(=O)(=O)NC(=O)Oc1c(C(C)C)cccc1C(C)C [Example 8]	-68%	13	–
CC(C)(C)c1cccc(C(C)(C)C)c1OC(=O)NS(=O)(=O)Oc1c(C(C)(C)C)cccc1C(C)(C)C [Example 26, 2,6-Bis(1,1-dimethylethyl)phenyl[(2,6-bis(1,1-dimethylethyl)phenoxy)sulfonyl]carbamate]	-18%	–	–
Cc1cccc(C)c1OS(=O)(=O)NC(=O)Oc1c(C(C)C)cccc1C(C)C [Example 18, 2,6-Bis(1-methylethyl)phenyl[(2,6-dimethylphenoxy)sulfonyl]carbamate]	-58%	–	–
CCCCCCCCCCCCOS(=O)(=O)NC(=O)Sc1c(C(C)C)cccc1C(C)C [Example 30, S-[2,6-bis(1-methylethyl)phenyl][(dodecyloxy)sulfonyl]carbamothioate]	-9%	–	–
